Experimental data taken from patent US20220401414A1, “TREATMENT AND PREVENTION OF A NEURODEGENERATIVE DISORDER” (Inflazome Limited, priority 2019, published 2022).

Test system: 6-OHDA mouse model of Parkinson's disease
Assay: Studies C and D: LC-MS/MS quantification of striatal dopamine and metabolites in the 6-OHDA mouse model
Type: in vivo, C57BL6 mice
Settings: 28 days after the 6-OHDA lesion
Procedure: To determine the oral efficacy of the compound of formula (I) in the 6-OHDA mouse model of Parkinson's disease.
8-week-old C57BL6 male mice (obtained from ARC, Perth, Australia) were housed under a 12-h light cycle in a SPF climate-controlled facility with food and water provided ad libitum for two weeks prior to study initiation. For treatment with the compound of formula (I), mice were dosed via oral gavage. Ten (10) mice in each group were dosed at 3 or 1 mg/kg, starting the day before (24 hr prior) stereotaxic surgery, and then QD until sacrifice.
6-OHDA (Sigma) was prepared immediately prior to surgeries. A sterile saline (0.9%) solution containing ascorbic acid (0.2%) was used as the vehicle to dissolve 6-OHDA. […]
Mice were sacrificed 1 week after the amphetamine test (day 28) and striatal tissue was micro-dissected, weighed and snap-frozen at −80° C. […] Striatal dopamine (DA) and its metabolites (DOPAC and HVA) were quantified in their stable derivative 3o form in the presence of internal standard 3,4-dihydroxybenzylamine (DHBA) using highly sensitive liquid chromatography-tandem mass spectrometry (LC-MS/MS) as described previously (Park et al., Biol. Pharm. Bull., 2013, vol. 36, pp. 252-8). […] For quantitation, one transition per analyte was monitored and two transitions per analyte were monitored for qualitative purposes. […]

`CC(C)n1ccc(S(=O)(=O)NC(=O)Nc2c3c(cc4c2CCC4)CCC3)n1` [compound of formula (I)] was tested. Which “striatal dopamine (with metabolites DOPAC and HVA)” value (Study C, 3 mg/kg oral QD) did it give?
The value was “significantly protected against the loss of dopamine”.

And the striatal dopamine (Study D, 3 mg/kg oral daily)?
Its striatal dopamine is “significantly protected against the loss of dopamine with improved efficacy compared to MCC950”.
